From EP1293213A1, “PREVENTIVES/REMEDIES FOR POSTOPERATIVE STRESS” (Japan Tobacco Inc., priority 2000, dated 2001)
Like-named read-outs stand apart in the source and are kept apart here.

Tests used:
[1] = target: T1, CRF type I(CRF-I) receptor (Homo sapiens, UniProt P34998); test: in vitro Binding Assay using membrane fraction of recombinant cell (6EF2B) expressing CRF receptor gene (SPA method); conditions: 125I-Tyr0-human/rat CRF, membrane fraction of 6EF2B cells (derived from Hela cell)
T1 construct: expressed in transfected cells; membrane fraction
T1 sequence (P34998 24-415): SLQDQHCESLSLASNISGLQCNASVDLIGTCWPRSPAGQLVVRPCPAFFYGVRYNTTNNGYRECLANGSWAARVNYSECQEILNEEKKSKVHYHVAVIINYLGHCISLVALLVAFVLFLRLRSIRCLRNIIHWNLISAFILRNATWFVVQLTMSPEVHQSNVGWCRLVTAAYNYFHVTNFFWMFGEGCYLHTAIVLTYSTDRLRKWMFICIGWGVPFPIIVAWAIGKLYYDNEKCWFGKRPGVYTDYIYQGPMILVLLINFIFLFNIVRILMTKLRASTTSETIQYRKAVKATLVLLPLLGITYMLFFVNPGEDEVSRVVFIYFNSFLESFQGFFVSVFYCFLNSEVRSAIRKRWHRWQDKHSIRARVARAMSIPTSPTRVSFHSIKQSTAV
Experimental: Experiment 1 : in vitro Binding Assay using membrane fraction of recombinant cell (6EF2B) with expression of CRF receptor gene
Preparation of membrane fraction:
Recombinant cells 6EF2B (derived from Hela cell), which express CRF type I(CRF-I) receptor gene stably, were cultivated in Eagle's MEM medium(10%FCS, 400ug/ml G418.1/100 penicillin/streptomycin). After cultivation, cells were suspended in 50mM Tris-HCl (pH7.2) solution containing 1mM EDTA and incubated at 25°C for 15 to 30 minutes. After that, every step was carried out at 4°C. Treated cells were suspended in 50mM Tris-HCl(pH7.2) containing 10% sucrose and homogenized by a Polytron(PT10-35 model). This step of homogenization was carried out at 25,000 rpm for 15 to 20 seconds and repeated twice or three times. In the course of this step the homogenates were inspected under a microscope. Homogenates were centrifuged at 600 x g for 5 minutes and the supernatant was centrifuged again at 40,000 x g for 30 minutes. The obtained pellet was resuspended in 50mM Tris-HCl(10mM MgCl2, 2mM EGTA) and the suspension was centrifuged again at 40,000 x g for 30minutes. The obtained pellet was used for further experiments as membrane fraction. The membrane fraction was diluted with 50mM Tris-HCl(10mM MgCl2, 2mM EGTA, 0.1%BSA, 100 kallikrein units/ml aprotinin, 0.1mM bacitracin, pH7.2) to have the concentration of 1mg/ml and then stored at -80°C. DC protein assay kit (produced by Bio-RAD) was used to determine the protein concentration of the membrane fraction.
Binding Assay using CRF-I receptor by means of SPA method:
Compounds to be evaluated were stored at the concentration of 10mM in DMSO. […] The assay buffer consisted of 50mM Tris-HCl (pH7.7) containing 100mM NaCl, 5mM KCl, 2mM CaCl2, 0.1% BSA, 0.1% bacitracin, 0.05% FCS and 5% horse serum. The reactions were carried out in 96-well Optiplate(Packard) in which to 50ul of the test substance solution, were added 50ul of WGA-beads & membrane fraction (50 to 100ug membrane fraction/10mg beads/ml) pre-coupled by stirring (rotating with 10rpm) at room temperature for 2 hours on the day of experiment, and 100ul of 0.4nM ^125I-Tyr^0-human/rat CRF(NEX-216, Dupont NEN), to be made up 200ul as total volume, and the mixture was incubated at 25°C for 3 hours. By the way, the step of pre-coupling was carried out by using beads solution (20mg/ml) suspended in 50mM Tris-HCl buffer solution (pH7.2) and after stirring beads were washed twice with Tris-HCl buffer and once with assay buffer by centrifugation (3000 rpm, 5 minutes). In order to measure total binding and non-specific binding activity, assay buffer solution and 1uM(final conc.) cold human /rat CRF(C-3042; SIGMA) solution were used respectively in place of test substance solution. After incubation, the mixture was centrifuged at 23 °C, 2,500 rpm for 5 minutes and the scintillation was counted with Top Count (Packard). An influence of color quench was corrected by standard curve made by using tartrazine as a quencher. Evaluation of samples was carried out several times.

[2] = test system: adrenocorticotropic hormone(ACTH); test: Experiment 2: Model of surgical stress in mouse (inhibitory action of rise in releasing of ACTH); assay type: in vivo; conditions: ddY male mice, intravenous, surgical stress (abdominal incision, bowel draped externally)
Experimental: Experiment 2: Model of surgical stress in mouse (Inhibitory action of rise in releasing of adrenocorticotropic hormone(ACTH))
ddY male mice(SLC, 7 to 8 weeks of age: weight 34 to 42g)were used for experiments. Mice were housed before use under controlled lighting condition (12hours light and 12hours dark cycle(lights on from 8:00 to 20:00) at 23±3 °C and 55±15% humidity, and maintained with basal diet and water ad labium. On the experimental day, mice were moved to experimental room and habituated before experiment for more than 1 hour. On the day before experiment, mice were previously handled (by being fastened up for 10 to 15 seconds like the case of i.p. injections) to habituate to the stress caused by handling.
Medicine and administration:
Test compound to be evaluated was dissolved in and diluted with physiological saline(Otsuka), 5% mannitol or 0.1N NaHCO3/saline. Then the test sample solution was given into veins of mice at a dose of 10ml/Kg body weight. The same solvent alone mentioned above was given into veins of control mice group at a dose of 10ml/Kg weight.
Mice were anesthetized by injection of pentobarbital Na (2.5mg/mouse i.p.) and after 15 minutes the solvent alone or the solution containing test sample to be evaluated were intravenously injected on the tails of mice at a dose of 10ml/ Kg weight of mouse. After more 10 minutes a midline incision was made in the abdomen and in two minutes bowel was draped externally. Then 2.5 minutes after incision 0.6ml of blood samples were collected from main vein abdominalis for 1 minute gradually by using prechilled syringes(needle size 25G), which were wetted with 100mM EDTA solution. Control mice not subjected to surgical stress were decapitated and blood samples were collected at 13 to 14 minutes after medication of solvent alone and to them added 20ul of 100mM EDTA. Blood samples collected were put into siliconized tubes and centrifuged at 10,000rpm and 4°C for 5 minutes. The concentration of ACTH in supernatant was determined by IRMA method using Allegro ACTH kit (Nihon Medi+Physics Co.,Ltd.). […]

[3] = read-out: IC50(nM) [experiment 1]

Structure (SMILES)	IC50 [1, 3] [nM]	Inhibitory action on ACTH release (mg/kg) [experiment 2] [2] [mg/kg]	IC50 ([1]; IC50(nM) [experiment 1]) [nM]
CCc1cc(S(=O)(=O)N(CC)CC)cc(NC(=O)c2cc(Cl)c(O)c(Cl)c2)c1OC [Example 6, 3,5-dichloro-N-(3-ethyl-5-diethylsulfamoyl-2-methoxyphenyl)-4-hydroxybenzamide]	218		
CCc1cc(S(=O)(=O)N(CC)CC)cc(NC(=O)c2cc(Cl)c([O-])c(Cl)c2)c1OC.[Na+] [Example 8, sodium 2,6-dichloro-4-(N-(3-ethyl-5-diethylsulfamoyl-2-methoxyphenyl)carbamoyl)phenoxide]	195	10 to 30	
CCc1cc(S(=O)(=O)N(CC)CC)cc(NC(=O)c2cc(Cl)c(OP(=O)(O)O)c(Cl)c2)c1OC.O=P(O)(O)O [Example 9, phosphate 2,6-dichloro-4-(N-(3-ethyl-5-diethylsulfamoyl-2-methoxyphenyl)carbamoyl)phenylphosphate]		10 to 30	278
CCN(CC)S(=O)(=O)c1cc(NC(=O)c2cc(Cl)c(O)c(Cl)c2)c(OC)c(OC)c1 [Example 10, 3,5-dichloro-N-(5-diethylsulfamoyl-2,3-dimethoxyphenyl)-4-hydroxybenzamide]	165		
CCN(CC)S(=O)(=O)c1cc(NC(=O)c2cc(Cl)c(O)c([N+](=O)[O-])c2)c(OC)c(OC)c1 [Example 11, 3-chloro-N-(5-diethylsulfamoyl-2,3-dimethoxyphenyl)-4-hydroxy-5-nitrobenzamide]	123		
CCN(CC)S(=O)(=O)c1cc(NC(=O)c2cc(Cl)c(O)c(Cl)c2)c(OC)c(N(C)C)c1 [Example 12, 3,5-dichloro-N-(5-diethylsulfamoyl-3-(dimethylamino)-2-methoxyphenyl)-4-hydroxybenzamide.]	57		
